Experiments:
[1] = target: T1, concanavalin A (Con A) (Canavalia ensiformis, UniProt P02866); test: biochemical; type: binding
T1 construct: purchased SEIKAGAKU KOGYO

[2] = target: T2, Pea Lectin (PSA) (Pisum sativum, UniProt P02867); test: SPR measurement of ligand-introduced chip with PSA; type: binding
T2 construct: purchased SEIKAGAKU KOGYO
T2 sequence (P02867 31-211 limits assumed): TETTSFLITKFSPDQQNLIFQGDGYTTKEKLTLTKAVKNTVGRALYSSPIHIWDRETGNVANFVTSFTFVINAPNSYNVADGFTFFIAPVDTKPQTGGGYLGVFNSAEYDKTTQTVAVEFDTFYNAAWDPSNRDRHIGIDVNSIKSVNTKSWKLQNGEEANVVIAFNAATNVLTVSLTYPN
T2 sequence (P02867 218-269 limits assumed): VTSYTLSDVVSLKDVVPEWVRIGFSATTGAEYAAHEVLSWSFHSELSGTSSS
Procedure: (§1) PBS solutions containing proteins of various concentrations were flown onto the ligand-introduced chip obtained in (5-1) by 60 μL at a flow rate of 20 μL/min so as to observe the binding and dissociating behavior of the ligand-introduced chip with each protein by an SPR measurement.
(§2) The following proteins were used. • BSA (SIGMA ALUBMUN, BOVINE) • Concanavalin A (SEIKAGAKU KOGYO) • Pea Lectin (SEIKAGAKU KOGYO) • Peanut Lectin (SEIKAGAKU KOGYO) • RCA120 (SEIKAGAKU KOGYO)
(§3) Moreover, Con A of various concentrations was acted on the ligand-introduced chip so as to conduct an SPR measurement on an interaction. Also, an SPR measurement was also conducted on an interaction with BSA and PSA so as to observe a resonant angle change.
(§4) Further, ligand-introduced chips were produced which includes 4-Mal and 4-Glc of the present invention and 2-Mal and 2-Glc serving as a comparative example immobilized thereon. Con A, BSA, PSA, RCA120, and PNA solutions of various concentrations were flown onto the ligand-introduced chips so as to observe a resonant angle change by an SPR measurement.

[3] = target: T3, BSA (Bos taurus, UniProt P02769); test: SPR measurement of ligand-introduced chip with BSA; type: binding, bovine
T3 construct: purchased SIGMA
Procedure: as §1, §2, §3, §4

[4] = target: T1, concanavalin A (Con A); test: Affinity chromatography on 4-Mal affinity column, SDS-PAGE of fractions: Con A; type: binding; conditions: mixed solution of Con A, PSA and BSA in PBS; elution with PBS, glucose, NaOH
Procedure: Following a general producing method of an affinity column, an affinity column including the ligand 4-Mal, obtained in Example 4, immobilized thereto. As a column carrier, Hitrap NHS-activated Hp (column volume 1 mL; manufactured by Amersham Co., Ltd.) was used. The column carrier, including a gel matrix and N-hydroxysuccinimide serving as an active group immobilized thereon through a spacer ([…] NHS group per 1 mL gel), is suitable to immobilizing onto a carrier a compound having an amino group. FIG. 6 is a schematic diagram showing the steps for preparation of an affinity column. […]
Absorbance of the fractions collected by the affinity chromatography in (6-2) was measured at a wavelength of 280 nm using an ultraviolet spectrometer. […]
The fractions (1 mL) so collected were freeze-dried and then mixed with the ion exchanged water (100 μL) so as to dissolve the fractions again. […] A ready-made gel (ATTO PAGEL-Compact AE-6000 (containing SDS 12.5%)) was set in an electrophoretic cell filled with the electrophoresis buffer solution. […]
Specifically, 12.5% acrylamide gel (ATTO PAGEL-Compact AE-6000) was used to perform SDS-PAGE, and Coomassie brilliant blue was used for dyeing, the result of which is shown in FIG. 8. […] In the Mix-3 fraction, BSA and PSA bands disappeared and only Con A band was detected. […]

[5] = target: T4, neutroavidin (Gallus gallus, UniProt P02701); test: Immobilization of ligand onto neutroavidin-immobilized SPR sensor chip; type: binding; conditions: ligand solutions flown until no further increase
T4 construct: purchased PIERCE CA47105
T4 sequence (P02701 25-152): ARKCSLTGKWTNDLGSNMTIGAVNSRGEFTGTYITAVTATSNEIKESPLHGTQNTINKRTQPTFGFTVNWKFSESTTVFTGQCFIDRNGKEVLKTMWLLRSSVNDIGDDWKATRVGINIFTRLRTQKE
Procedure: The ligand-introduced chip was obtained by the following procedure. In the beginning, a sensor chip (manufactured by Japan Laser Electronics Co., Ltd.), prepared by depositing a gold thin film of 50 nm thick on a glass substrate of 13 mm×20 mm×0.7 mm, was placed in a UV ozone cleaner (product name: NL-UV253, Japan Laser Electronics Co., Ltd.) and was exposed to ultraviolet rays for 20 minutes so as to wash the surface of the sensor chip with ozone. Next, the sensor chip was immersed in a 4,4′-methanol dithiobutyrate solution (100 μM) in a Petri dish and gently shaken for 30 minutes at room temperature (product name: Bio Dancer, New Brunswick Scientific Co., Ltd.). 4-thiobutyric acid was immobilized onto the chip through a gold-sulfur bond. The chip was washed three times with ethanol. […] A surface plasmon resonant angle change then observed was monitored. […]
Next, 4.9 μM, 16.3 μM, and 49 μM 4-Mal solutions were flown onto (S) by 60 μL at a flow rate of 10 μL/min for immobilization; 0.49 μM and 4.9 μM 4-Glc solutions were flown onto (R) by 60 μL at a flow rate of 10 μL/min for immobilization. […] A resonant angle change quantity between a point of time when the resonant angle change had become constant and a point of time before the immobilization was defined as a immobilization quantity. […] In this sensorgram, the immobilization quantity of 4-Mal was 220 RU and that of 4-Gcl was 220 RU. […]

[6] = 1.0 μM Con A, Mal ligand chip against Glc ligand chip (2-channel), PBS pH 7.4, 25° C.

## O=C1N[C@H]2[C@H](CS[C@H]2CCCCC(=O)N(CCNC(=O)c2ccc(NC[C@H](O)[C@@H](O)[C@H](O[C@H]3O[C@H](CO)[C@@H](O)[C@H](O)[C@H]3O)[C@H](O)CO)cc2)CCNC(=O)c2ccc(NC[C@H](O)[C@@H](O)[C@H](O[C@H]3O[C@H](CO)[C@@H](O)[C@H](O)[C@H]3O)[C@H](O)CO)cc2)N1 [Compound 2-Mal, reference compound]
[1]
  Kd: 960 ± 50 nM
[1]; [6]
  kd: dissociation velocity constant: 1.4 ± 0.86 s^−1 × 10^−2
[1]; 1.0 μM Con A, Mal ligand chip against Glc ligand chip (2-channel), PBS pH 7.4, 25° C., read-out: ka: binding velocity constant
  kon: 15000 ± 8600 M⁻¹ s⁻¹

## O=C(CCN(CCC(=O)NCCN(CCC(=O)Nc1cccc(NCC(O)C(O)C(OC2OC(CO)C(O)C(O)C2O)C(O)CO)c1)CCC(=O)Nc1cccc(NCC(O)C(O)C(OC2OC(CO)C(O)C(O)C2O)C(O)CO)c1)C(=O)CCCCC1SCC2NC(=O)NC21)NCCN(CCC(=O)Nc1cccc(NCC(O)C(O)C(OC2OC(CO)C(O)C(O)C2O)C(O)CO)c1)CCC(=O)Nc1cccc(NCC(O)C(O)C(OC2OC(CO)C(O)C(O)C2O)C(O)CO)c1 (stereo not shown) [Compound 4-Mal]
[2]
  specific interaction with PSA by SPR: do not specifically interact
[1]
  binding of Con A to ligand by SPR: firmly binds
[1]; [6]
  KD (kd/ka): dissociation constant: 590 ± 60 nM
  kd: dissociation velocity constant: 0.72 ± 0.021 s^−1 × 10^−2
[3]
  specific interaction with BSA by SPR: do not specifically interact
[4]
  retention of Con A on affinity column: A majority of Con A was retained
[5]
  ligand immobilization quantity (resonant angle change): 220 RU
